In patent publication US20050112607A1, “Rapid and sensitive detection of protein aggregation” (priority 1999, published 2005):

Tests used:
[1] = Colloid/colloid linkage via biotin/streptavidin, color change; assay type: binding; conditions: streptavidin added to biotin-SAM colloids
Description: A set of gold colloids was derivatized with self-assembled monolayers that incorporated biotin-thiols (SAM forming species included C11, 3 ethylene glycol units, then biotin) along with C16 carboxy-terminated thiols (a mixed SAM). Streptavidin, which has four binding sites for biotin, or a random protein (GST) was added to the colloid solutions.

[2] = target: GST (Schistosoma japonicum, UniProt P08515); assay: Colloid/colloid color change assay with GST-bound NTA-Ni colloids (irrelevant protein); assay type: binding; conditions: 100 ul or 50 ul protein per well, room temperature
GST, sequence (P08515 whole entry): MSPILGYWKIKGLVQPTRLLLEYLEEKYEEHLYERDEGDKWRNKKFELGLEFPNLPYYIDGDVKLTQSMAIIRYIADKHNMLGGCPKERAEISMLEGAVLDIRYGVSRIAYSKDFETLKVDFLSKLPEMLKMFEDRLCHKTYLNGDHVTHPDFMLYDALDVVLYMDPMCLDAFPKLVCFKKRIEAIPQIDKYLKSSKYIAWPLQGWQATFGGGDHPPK
Description: (§1) 600 microliters colloids, derivatized with a self-assembled monolayer that presents nitrilo tri-acetic acid, NTA (for the capture of histidine-tagged proteins), was mixed with 60 microliters of 500 micromolar histidine-tagged RGD-motif-containing peptide. 600 microliters of a second set of NTA-Ni presenting colloids was mixed with 60 ul of a 500 uM solution of GST, an irrelevant protein, as a negative control. Colloids were spun down and resuspended in phosphate buffer to remove residual unbound protein or peptide. Endostatin and Angiostatin, two proteins implicated in angiogenesis and suspected of binding to regions of vitronectin, such as the RGD peptide, were prepared by dialysis into phoshate-buffered saline solution and then 1:10 dilution into PBS from a stock concentration of 1 mg/mL.
(§2) 400 ul phosphate buffer (pH 7.4), 200 ul either RGD-bound colloids or GST-bound colloids, and either 100 ul endostatin or angiostatin, 50 ul endostatin or angiostatin/50 ul phosphate buffer, or 100 ul phosphate buffer (as a negative control) were added to each well of a crystallization dish. Color change was monitored over time at room temperature. […] The histidine-tagged proteins were then eluted using imidazole, and the samples were analyzed by SDS-PAGE. […]

[3] = test system: histidine-tagged RGD-motif-containing peptide; assay: Colloid/colloid color change assay with RGD-peptide-bound NTA-Ni colloids; assay type: binding; conditions: 100 ul or 50 ul protein per well, room temperature, after approximately 15 minutes
Description: as §1, §2

[4] = target: resin-immobilized GST (Schistosoma japonicum, UniProt P08515); assay: NTA-Ni agarose resin binding, imidazole elution, SDS-PAGE (GST)
resin-immobilized GST, sequence (P08515 whole entry): as above
Description: (§3) 400 ul phosphate buffer (pH 7.4), 200 ul either RGD-bound colloids or GST-bound colloids, and either 100 ul endostatin or angiostatin, 50 ul endostatin or angiostatin/50 ul phosphate buffer, or 100 ul phosphate buffer (as a negative control) were added to each well of a crystallization dish. Color change was monitored over time at room temperature. […] The color change was more pronounced in the well that contained 100 ul endostatin than in the well that contained 50 ul endostatin/50 ul phospate buffer. […] Row A included colloids and angiostatin. Row B included colloids with endostatin. (Rows C and D are empty wells). Columns 1-3 have RGD peptide immobilized on the colloids. […] have an irrelevant protein, GST, immobilized on the colloid. Columns 1 and 4 contain […] of the relevant drug (endostatin or angiostatin). […] The results were verified by gel electrophoresis. The RGD peptide and histidine-tagged GST were bound to a small amount of NTA-Ni agarose resin at saturating concentration. Endostatin was incubated with the resin and allowed to bind to the protein on the resin. The histidine-tagged proteins were then eluted using imidazole, and the samples were analyzed by SDS-PAGE. […] This assay could be easily adapted for screening of drug candidates that either mimic the RGD-binding characteristic of endostatin or bind to the RGD-binding domains on endostatin. […]

[5] = test system: resin-immobilized RGD peptide; assay: NTA-Ni agarose resin binding, imidazole elution, SDS-PAGE (RGD peptide)
Description: as §3

Streptavidin
Color change of biotin-presenting colloid solution [1]: immediately turned blue

angiostatin
Color change of GST-bound colloids [2]: No color change occurred
Color change from red to blue of RGD-peptide-bound colloids [3]: No color change occurred

endostatin
Binding to resin-immobilized GST (SDS-PAGE) [4]: did not bind to the resin-immobilized GST
Binding to resin-immobilized RGD peptide (SDS-PAGE) [5]: bound to the resin-immobilized RGD peptide
Color change of GST-bound colloids [2]: No color change occurred
Color change from red to blue of RGD-peptide-bound colloids [3]: a color change from red to blue was visible
